Holding throughout (type): physicochemical
Data set [1] in a line: Stability and flowability of the solid form (statement, no method given).
The nature of data set [2]: Thermogravimetric analysis (TGA) of Forms T14 and T15. Conditions: temperature changed from 27.1° C. to 170° C. The protocol: Procedure for Thermo Gravimetric Analysis (TGA) for Forms T14 and T15:
Thermogravimetric analysis was conducted on a TA instrument Q500 thermogravimetric analyzer. About 9.4 mg sample was placed into a tared TGA crucible and placed into a TGA furnace. The furnace was heated under nitrogen at a heating rate of 10° C./min up to 250° C.

The nature of data set [3]: Karl Fischer water content. The protocol:
Water content analysis was performed on Metrohm 890 Titando instrument. About 100 mg sample was added to the titrator, the water content is measured in % w/w by measuring the amount of iodine consumed as a result of reaction with water in the sample.

SMILES strings stand for the structures.

As to `N#Cc1ccnc(N2C(=O)CC[C@H]2C(=O)N(c2cncc(F)c2)[C@H](C(=O)NC2CC(F)(F)C2)c2ccccc2Cl)c1` [Form T11, Ivosidenib], in data set [1], the flowability entry was “very good flowability” and the “stability of the crystalline form” value is given as “stable”.
Regarding `N#Cc1ccnc(N2C(=O)CC[C@H]2C(=O)N(c2cncc(F)c2)[C@H](C(=O)NC2CC(F)(F)C2)c2ccccc2Cl)c1` [Form T15, Ivosidenib], in data set [2], the “weight loss of the weight of the sample (TGA)” value is listed as “about 3.899%”. In addition, the “moisture / water content (KF Titration method)” value in data set [3] worked out at 3.39%.
As to `N#Cc1ccnc(N2C(=O)CC[C@H]2C(=O)N(c2cncc(F)c2)[C@H](C(=O)NC2CC(F)(F)C2)c2ccccc2Cl)c1` [Form T14, Ivosidenib], the “weight loss of the weight of the sample (TGA)” value in data set [2] is “about 2.786%”. For the same molecule, the “moisture / water content (KF Titration method)” value in data set [3] worked out at 2.7%.

For the origin of these results see patent US11673880B2, “Solid state forms of ivosidenib” (ASSIA CHEMICAL INDUSTRIES LTD., priority 2017, dated 2023).
